Source: US20240409536A1, “COMPOUNDS AND METHODS FOR MODULATING SPLICING” (REMIX THERAPEUTICS INC., priority 2021, published 2024)

Experiments:
HiBiT-tagged HTT protein = test: HiBiT protein abundance assay, HTT (K562 HiBiT knock-in cells); assay type: cell-based, human; conditions: 24 hours
Outline: (§1)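 K562 cells with endogenous HiBiT knock-in tag, 10-point 3-fold dilutions (top 10 μM final, ≤0.25% DMSO), 24 h at 37 °C. Lytic Nano-Glo HiBiT luminescence, normalized to DMSO and unmodified K562 baselines; IC50 is concentration giving 50% protein abundance from four-parameter fit.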

MYB mRNA = test: Splicing RT-qPCR assay, MYB canonical (CJ) and alternative (AJ) junction mRNA; assay type: cell-based; conditions: Homo sapiens, A673 or K562 cells, 24 hours; for IC50: decrease in canonical junction mRNA; for AC50: increase in alternative junction mRNA
Outline: (§2)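 Splice switching was scored by qPCR detection of the new alternative-exon junction (AJ) alongside the canonical junction (CJ). Cell lines A673 or K562 received compound 24 h, top dose 10 uM final.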

HTT mRNA = test: Splicing RT-qPCR assay, HTT canonical (CJ) and alternative (AJ) junction mRNA; assay type: cell-based; conditions: Homo sapiens, A673 or K562 cells, 24 hours; for IC50: decrease in canonical junction mRNA; for AC50: increase in alternative junction mRNA
Outline: as §2

HiBiT-tagged MYB protein = test: HiBiT protein abundance assay, MYB (K562 HiBiT knock-in cells); assay type: cell-based, human; conditions: 24 hours
Outline: as §1

| SMILES | IC50 (HiBiT-tagged HTT protein) [nM] | IC50 (MYB mRNA) [nM] | IC50 (HTT mRNA) [nM] | IC50 (HiBiT-tagged MYB protein) [nM] | AC50 (MYB mRNA) [nM] | AC50 (HTT mRNA) [nM] |
| --- | --- | --- | --- | --- | --- | --- |
| COc1nc2c(F)cc(NC(=O)c3ccc(N4C[C@@H](C)N[C@@H](C)C4)c4nccnc34)cc2o1 [Compound 342] | > 10000 | > 10000 | > 10000 | > 10000 | > 10000 | > 10000 |
| Cc1cn2cc(NC(=O)c3ccc(N4CCNCC4)c4nncnc34)cc(F)c2n1 [Compound 345] | 1000 to 10000 | 100 to 1000 | 1000 to 10000 | 100 to 1000 | 100 to 1000 | 1000 to 10000 |
| Cc1cn2cc(NC(=O)c3ccc(N4C[C@@H](C)N[C@@H](C)C4)c4ncc(OC5CC5)nc34)cc(F)c2n1 [Compound 351] | 1000 to 10000 | 100 to 1000 | 1000 to 10000 | 100 to 1000 | 100 to 1000 | > 10000 |
| COc1nc(NC(=O)c2ccc(N3C[C@@H](C)N[C@@H](C)C3)c3nccnc23)cc2cn(C)nc12 [Compound 352] | 1000 to 10000 | 100 to 1000 | 1000 to 10000 | 100 to 1000 | 100 to 1000 | 1000 to 10000 |
| Cc1cn2nc(NC(=O)c3ccc(N4C[C@@H](C)N[C@@H](C)C4)c4nccnc34)cc2c(C)n1 [Compound 354] | 100 to 1000 | 100 to 1000 | 100 to 1000 | 100 to 1000 | 100 to 1000 | 100 to 1000 |
| Cc1cn2cc(NC(=O)c3ccc(N4CCC(N)(CF)CC4)c4nccnc34)cc(F)c2n1 [Compound 356] | 1000 to 10000 | 1000 to 10000 | 1000 to 10000 | 1000 to 10000 | 1000 to 10000 | > 10000 |
| COc1cn2cc(NC(=O)c3ccc(N4C[C@@H](C)N[C@@H](C)C4)c4nccnc34)cc(F)c2n1 [Compound 357] | > 10000 | > 10000 | > 10000 | 1000 to 10000 | 1000 to 10000 | > 10000 |
| Cc1cn2cc(NC(=O)c3ccc(N4C[C@@H](C)N[C@@H](C)C4)c4ncccc34)cc(F)c2n1 [Compound 358] | > 10000 | > 10000 | > 10000 | > 10000 | > 10000 | > 10000 |

Now from value to compound, other results behind:

| IC50 (HiBiT-tagged HTT protein) [nM] | IC50 (MYB mRNA) [nM] | IC50 (HTT mRNA) [nM] | IC50 (HiBiT-tagged MYB protein) [nM] | SMILES | AC50 (MYB mRNA) [nM] | AC50 (HTT mRNA) [nM] |
| --- | --- | --- | --- | --- | --- | --- |
| 1000 to 10000 | 100 to 1000 | 1000 to 10000 | 100 to 1000 | Cc1cn2cc(NC(=O)c3ccc(N4C[C@@H](C)N[C@@H](C)C4)c4cccnc34)cc(F)c2n1 [Compound 340] | 100 to 1000 | 1000 to 10000 |
| 1000 to 10000 | 100 to 1000 | 1000 to 10000 | 100 to 1000 | Cc1cn2cc(NC(=O)c3ccc(N4CCNC5(CC5)C4)c4cccnc34)cc(F)c2n1 [Compound 341] | 100 to 1000 | 1000 to 10000 |
| 1000 to 10000 | 1000 to 10000 | 1000 to 10000 | 1000 to 10000 | C[C@@H]1CN(c2ccc(C(=O)Nc3cc(F)c4cnccc4c3)c3nccnc23)C[C@H](C)N1 [Compound 343] | 1000 to 10000 | 1000 to 10000 |
| > 10000 | 1000 to 10000 | > 10000 | 1000 to 10000 | C[C@@H]1CN(c2ccc(C(=O)Nc3cc(F)c4ncccc4c3)c3nccnc23)C[C@H](C)N1 [Compound 344] | > 10000 | > 10000 |
| > 10000 | > 10000 | > 10000 | > 10000 | Cc1ccc2cc(NC(=O)c3ccc(N4C[C@@H](C)N[C@@H](C)C4)c4nccnc34)cc(F)c2n1 [Compound 353] | > 10000 | > 10000 |
| 1000 to 10000 | 100 to 1000 | > 10000 | 100 to 1000 | Cc1cn2cc(NC(=O)c3ccc(N4C[C@@H](C)N(O)[C@@H](C)C4)c4nccnc34)cc(F)c2n1 [Compound 355] | 100 to 1000 | 1000 to 10000 |
| > 10000 | 100 to 1000 | > 10000 | 100 to 1000 | Cc1cn2cc(NC(=O)c3ccc(N4C[C@@H](C)N[C@@H](C)C4)c4nccnc34)nc2c(C)n1 [Compound 359] | 100 to 1000 | > 10000 |
